{"source": "patent US20030133913A1", "about": "“Methods of maturing plasmacytoid dendritic cells using immune response modifier molecules” (3M Innovative Properties Company, priority 2001, published 2003)", "tested_on": "plasmacytoid dendritic cells", "experiment": "Enhanced survival of isolated pDCs, cell viability by flow cytometry", "type": "cell-based, human", "conditions": "48 hours after treatment with IRM (3 μM) versus without IRM; FIG. 4", "method": "Human pDCs were isolated from PBMC by immunomagnetic bead positive selection according to the manufacturer's instructions (Miltenyi Biotec, Inc., Auburn, Calif.). Briefly, PBMC were incubated with pDC-specific antibodies, BDCA-2 or BDCA-4, and the labeled cells were collected with a Miltenyi LS column. The positively selected cells were resuspended in X-Vivo 20 medium. Isolated pDCs were obtained as described in Example 2. The isolated pDCs were incubated in with and without IRM. Cell viability was measured in both cultures by flow cytometry after 24 hours and again after 48 hours. […] Pairwise comparisons of IRM-treated cells to the control group were performed using the Dunnett adjustment to preserve the overall 0.05 level of significance. If there were discrepancies between the 2 methods, the results from the arcsin transformed data were reported.", "data": [{"compound": "CCOCc1nc2c(N)nc3ccccc3c2n1CC(C)(C)O", "note": "[IRM, 4-amino-2-ethoxymethyl-α,α-dimethyl-1H-imidazo[4,5-c]quinoline-1-ethanol]", "values": [{"measurement": "pDC survival (percent viable)", "value": "statistically significant higher rate of survival"}]}]}
